Data on five compounds can be found in patent EP1727814B1, “NUCLEOSIDE ANALOGUES WITH ANTIVIRAL ACTIVITY” (Universita' Degli Studi Di Catania, priority 2004, dated 2005).

One experiment relates to RT of avian retrovirus. Kind of experiment: Inhibition in vitro of retroviral reverse transcriptase (cDNA synthesis, 32P incorporation, gel electrophoresis). In kind it is biochemical. Conditions: after preincubation with PBMC lysates. An excerpt: In addition to the tests on cells susceptible to infection by human retroviruses, an assay was set up to highlight the capacity of the compounds A, B and C to inhibit in vitro the activity of a retroviral reverse transcriptase (RT). In short, the assay is based on the principle that starting from an RNA template, it is possible to evaluate the effect of inhibition of the capacity of the RT to synthesise cDNA, by identifying the cDNA fragment of neosynthesis, following gel electrophoretic run, thanks to incorporation of a nucleotide precursor labelled with phosphorus 32 (P32). […] As in order to be utilisable by the RT, the nucleoside analogues must be transformed into their triphosphate form, the compounds in question were placed in contact with cell protein extracts containing kinases capable of inducing phosphorylations. For this purpose protein extracts were used, obtained by lysis from a million PBMC previously stimulated in 48h of culture with PHA. The nucleoside compounds were incubated in ice for one hour with the lysates. After incubation the samples were taken to 95°C in order to inactivate the cellular enzymes present in the lysates. […]

The next experiment has as its system HIV-1. The experiment is described as follows: Anti-HIV activity in CEM cells, p24 ELISA in supernatant.
The next experiment has as its system HSV-2, strain "G". The experiment is described as follows: Plaque reduction assay in Vero cells. In kind it is cell-based, herpes simplex type 2 (HSV-2). Particulars: Human alphaherpesvirus 2; HSV-2, Vero cells, 72h; read-out: EC50 (concentration capable of reducing the formation of plaques by 50%). Here is the method:
(§1) To assay the activity of the compounds also towards herpes virus infections, the model for in vitro transmission of herpes simplex type 1 (HSV-1) and of herpes simplex type 2 (HSV-2) to permissive cells of the Vero cell line and plaque reduction assay were used. Vero cells were transferred and cultivated for 24h at 37°C in six-well plates for the cultures to reach confluence. After removal of the culture medium in the wells, a suspension was added containing 100 plaque forming units (PFU) of HSV-1, strain "F", or HSV-2, strain "G" in 100 µl of medium. After one hour of incubation the appropriate quantities of compounds were added diluted in culture medium with the addition of serum 2% and methylcellulose 0.8% to obtain final concentrations of the compounds ranging from 1 µM to 400 µM. The cultures were then incubated for 72h, the medium was removed from the wells and stained with crystal violet 0.8%. After removing the wash liquid, the plates were left to dry and the number of plaques was determined. Acyclovir was used as the positive reference control. A double assay was performed and the values of EC50 (concentration capable of reducing the formation of plaques by 50%) were calculated by extrapolating the mean number of plaques from the plot towards the corresponding concentrations of the compounds.
For orientation: Plaque reduction counts the foci of infection that form in a cell layer.

Another experiment has as its system HSV-1, strain "F". The experiment is described as follows: Plaque reduction assay in Vero cells. The experiment is classed as cell-based, herpes simplex type 1 (HSV-1). Particulars: Human alphaherpesvirus 1; HSV-1, Vero cells, 72h; read-out: EC50 (concentration capable of reducing the formation of plaques by 50%). Here is the method:
as §1

For experiment [1], the system named is lymphomonocytes of adult peripheral blood. The experiment is described as follows: Proliferative response of infected and uninfected lymphomonocyte cultures. The experiment is classed as cell-based. Particulars: lowest concentrations (5µM and 1 µM). Here is the method:
(§2) To assay the capacity to inhibit transmission, lymphomonocytes of adult peripheral blood were separated by density gradient centrifugation and then infected with HTLV-1 by co-cultivation with a chronically infected line that produces viruses, following irradiation of the donor cells (Miyoshi et al. Nature 1981, 296: 770-772).
(§3) The assayed nucleoside analogues (compounds A, B and C) were added at different concentrations at the moment of infection and the treatment was repeated at 3, 7 and 10 days from the first exposure.
Moreover, the infected and uninfected cultures, treated or untreated with the compounds in question, were assayed to determine the proliferative response during infection, in order to verify, in addition to the antiviral effect also any antiproliferative effect with regard to the infected cultures.

The next experiment deals with HTLV-1. The experiment is described as follows: Inhibition of HTLV-1 transmission to lymphomonocytes by co-cultivation (DNA-PCR, RT-PCR, Tax Western blot). The experiment is classed as cell-based, HTLV-1 (human T lymphotropic retrovirus type 1). Conditions: lowest concentrations (5µM and 1 µM). Here is the method: as §2, §3
The infection was monitored by verifying that the cells treated had become infected, compared to untreated controls, four weeks after infection. The infection was determined by monitoring the presence of proviral DNA and the viral RNA expression, by DNA-PCR and RT-PCR assay respectively. With these techniques it is possible to amplify and highlight the viral genome of HTLV-1 integrated into the host cell, that is virus-specific RNA-messengers, by the use of specific oligonucleotides for viral regions.
For further evaluation of the infection the viral protein expression of HTLV-1 Tax was also highlighted using Western blot analysis with specific monoclonal antibodies.
(In western blotting, separated proteins are transferred to a membrane and probed.)

[2] abbreviates: Human immunodeficiency virus 1, CCRF-CEM, 168 h, read-out: inhibition of the production of p24 in the supernatant of infected cultures.

pEC50: −log10 of the molar value.

Protocol for HIV-1: The strain HIV-1 mixed with HIV-IIIB produced in chronically infected cells of lymphoid origin H-9 and therefore capable of growing the virus stably in a culture, was used to assay the anti-HIV activity. Viral inoculation was prepared by low speed centrifugation (3000 rpm) of the supernatant from the line producing the virus and by subsequent ultracentrifugation (40,000 rpm). The concentrated virus was titrated in TCID 50%/ml (units infecting 50% of the cultures). Cells from the lymphoid T-cell line, CEM, were used as cells to infect. The target cells were placed in contact with various quantities of TCID 50% of titrated virus, in an interval ranging from a MOl (multiplicity of infection) of 0.0001 and 0.1 TCID 50%/cell.
The cultures were kept for 7 days at 37°C in the presence of fetal bovine serum 2%. After 2-4 days of culture the medium was removed and replaced with fresh medium to which the compounds in question were again added.
After seven days of setting up the culture, the infection was evaluated using the ELISA method, measuring the production of HIV-1 p24 protein in the supernatant of infected cultures, treated and untreated.

`Cc1cn([C@H]2C[C@H](N=[N+]=[N-])[C@@H](CO)O2)c(=O)[nH]c1=O` [AZT, zidovudine, reference compound]: the “inhibition of RT activity” value with RT of avian retrovirus (0.1 and 10 µM) was “capable of inhibiting RT activity”. In the experiment on HIV-1 (setting [2]), the inhibition at 0.004 µM stood at 60%, the inhibition at 0.04 µM was 80% and the inhibition at 0.4 µM is 98%.

As to `CCOP(=O)(CC1CC(n2ccc(N)nc2=O)ON1C)OCC` (stereo not shown) [Compound A], in the experiment with HSV-2, strain "G", the pEC50 was 4.14. The pEC50 with HSV-1, strain "F" is 4.32. In addition, in the experiment with HIV-1 (setting [2]), the inhibition at 0.04 µM came to 45% and the inhibition at 0.4 µM amounted to 70%.

Regarding `CCOP(=O)(CC1CC(n2cc(C)c(=O)[nH]c2=O)ON1C)OCC` (stereo not shown) [Compound B], in the experiment on HSV-2, strain "G", the pEC50 is 4.11. In addition, the pEC50 in the experiment on HSV-1, strain "F" is 4.21. In addition, in the experiment on HIV-1 (setting [2]), the inhibition at 0.04 µM stood at 50% and the inhibition at 0.4 µM was 70%.

Consider `CCOP(=O)(CC1CC(n2cc(F)c(=O)[nH]c2=O)ON1C)OCC` (stereo not shown) [Compound C], for which the antiproliferative action entry in experiment [1] is recorded as “poor or no antiproliferative action”. The pEC50 in the experiment with HSV-2, strain "G" was 4.25. Moreover, in the experiment on HSV-1, strain "F", the pEC50 was 4.47. Also, the “protection from the infection” value in the experiment with HTLV-1 is “total protection”. Moreover, the “inhibition of RT activity” value in the experiment on RT of avian retrovirus (0.1, 1 and 20 µM) is given as “capable of inhibiting RT activity”. Further, the “inhibition of the production of p24 in the supernatant of infected cultures” value with HIV-1 (0.004 µM, CEM cells, 7 days) is “did not cause inhibition”. In the experiment on HIV-1 (setting [2]), the inhibition at 0.04 µM is 60% and the inhibition at 0.4 µM was found to be 75%.

For the compound `Nc1nc2c(ncn2COCCO)c(=O)[nH]1` [acyclovir, Acyclovir, reference compound], the pEC50 in the experiment on HSV-2, strain "G" was 4.49; in the experiment with HSV-1, strain "F", 4.85.

A word on the inhibition: it is the relative decrease from the control value, in per cent.
